Laboratory results taken from article doi:10.1101/2024.08.19.608619, “Discovery of potent SARS-CoV-2 nsp3 macrodomain inhibitors uncovers lack of translation to cellular antiviral response” (bioRxiv, 2024).
Where two headings read alike, the source gives them in different places.

Legend:
SARS-CoV-2 nsp3-mac1 [1] = molecular target: T1, SARS-CoV-2 nsp3-mac1 (Severe acute respiratory syndrome coronavirus 2, UniProt P0DTD1); assay: biochemical; design: SARS-CoV-2 nsp3 macrodomain TR-FRET single point, per cent inhibition, n=2
SARS-CoV-2 nsp3-mac1 [2] = molecular target: T1, SARS-CoV-2 nsp3-mac1; assay: biochemical; type: biochemical; conditions: SARS-CoV-2 nsp3 macrodomain TR-FRET single point
[3] = read-out: perc_inhibition_mean, batch_name=ASAP-0000354-001
[4] = read-out: perc_inhibition_mean, batch_name=ASAP-0000355-001
[5] = read-out: perc_inhibition_mean, batch_name=ASAP-0000356-001
[6] = read-out: perc_inhibition_mean, batch_name=ASAP-0000357-001
[7] = read-out: perc_inhibition_mean, batch_name=ASAP-0000358-001
[8] = read-out: perc_inhibition_mean, batch_name=ASAP-0000359-001
[9] = read-out: perc_inhibition_mean, batch_name=ASAP-0000360-001
[10] = read-out: perc_inhibition_mean, batch_name=ASAP-0000361-001
[11] = read-out: perc_inhibition_mean, batch_name=ASAP-0000363-001
[12] = read-out: perc_inhibition_mean, batch_name=ASAP-0000364-001
[13] = read-out: perc_inhibition_mean, batch_name=ASAP-0000365-001
[14] = read-out: perc_inhibition_mean, batch_name=ASAP-0000366-001
[15] = read-out: perc_inhibition_mean, batch_name=ASAP-0000380-001
[16] = read-out: perc_inhibition_mean, batch_name=ASAP-0000381-001
[17] = read-out: perc_inhibition_mean, batch_name=ASAP-0000382-001

Compound	perc_inhibition_mean (SARS-CoV-2 nsp3-mac1 [2]; concentration 49.75 uM)	perc_inhibition_mean (SARS-CoV-2 nsp3-mac1 [2]; concentration 99.5 uM)	further results
Cc1ccc(NC(=O)c2cnn3ccc(C4CCN(C(=O)c5ccccc5)CC4)cc23)cc1C(=O)O [ASAP-0000354]	-1.047%	-0.624%	inhibition at 49.75 µM (SARS-CoV-2 nsp3-mac1 [1]; [3]): -1.05%; inhibition at 99.5 µM (SARS-CoV-2 nsp3-mac1 [1]; [3]): -0.624%
O=C(NCc1ncccn1)c1cnn2ccc(C3CCN(C(=O)c4ccccc4)CC3)cc12 [ASAP-0000355]	-0.074%	-6.657%	inhibition at 49.75 µM (SARS-CoV-2 nsp3-mac1 [1]; [4]): -0.074%; inhibition at 99.5 µM (SARS-CoV-2 nsp3-mac1 [1]; [4]): -6.66%
NC1(C(=O)N(CCC(=O)N2CCNCC2)Cc2cccc(Cl)c2)CC(F)(F)C1 [ASAP-0000356]	-3.48%	-1.174%	inhibition at 49.75 µM (SARS-CoV-2 nsp3-mac1 [1]; [5]): -3.48%; inhibition at 99.5 µM (SARS-CoV-2 nsp3-mac1 [1]; [5]): -1.17%
O=C1CCC[C@@H](C(=O)N(CCC(=O)N2CCNCC2)Cc2cccc(Cl)c2)N1 [ASAP-0000357]	2.418%	-3.31%	inhibition at 49.75 µM (SARS-CoV-2 nsp3-mac1 [1]; [6]): 2.42%; inhibition at 99.5 µM (SARS-CoV-2 nsp3-mac1 [1]; [6]): -3.31%
Cc1ccc(C(=O)N2CCC(c3ccn4ncc(C(=O)N5CCCCC5)c4c3)CC2)c(=O)[nH]1 [ASAP-0000358]	3.307%	3.662%	inhibition at 49.75 µM (SARS-CoV-2 nsp3-mac1 [1]; [7]): 3.31%; inhibition at 99.5 µM (SARS-CoV-2 nsp3-mac1 [1]; [7]): 3.66%
O=C(Cc1ccns1)Nc1ncnc2[nH]cnc12 [ASAP-0000359]	-9.501%	-3.24%	inhibition at 49.75 µM (SARS-CoV-2 nsp3-mac1 [1]; [8]): -9.5%; inhibition at 99.5 µM (SARS-CoV-2 nsp3-mac1 [1]; [8]): -3.24%
O=C(O)c1ccsc1C(=O)N1CCC(c2ccn3ncc(C(=O)N4CCCCC4)c3c2)CC1 [ASAP-0000360]	45.022%	61.208%	inhibition at 49.75 µM (SARS-CoV-2 nsp3-mac1 [1]; [9]): 45%; inhibition at 99.5 µM (SARS-CoV-2 nsp3-mac1 [1]; [9]): 61.2%
CCN(Cc1nnc(C)o1)C(=O)c1cnn2ccc(C3CCN(C(=O)c4ccccc4)CC3)cc12 [ASAP-0000361]	10.027%	-5.306%	inhibition at 49.75 µM (SARS-CoV-2 nsp3-mac1 [1]; [10]): 10%; inhibition at 99.5 µM (SARS-CoV-2 nsp3-mac1 [1]; [10]): -5.31%
Oc1ccccc1CNc1ncnc2cccnc12 [ASAP-0000363]	-1.837%	-0.535%	inhibition at 49.75 µM (SARS-CoV-2 nsp3-mac1 [1]; [11]): -1.84%; inhibition at 99.5 µM (SARS-CoV-2 nsp3-mac1 [1]; [11]): -0.535%
O=C(c1ccnnc1O)N1CCC(c2ccn3ncc(C(=O)N4CCCCC4)c3c2)CC1 [ASAP-0000364]	-7.591%	10.21%	inhibition at 49.75 µM (SARS-CoV-2 nsp3-mac1 [1]; [12]): -7.59%; inhibition at 99.5 µM (SARS-CoV-2 nsp3-mac1 [1]; [12]): 10.2%
Cc1ccc2ccccc2c1-c1ncnc2[nH]ccc12 [ASAP-0000365]	-5.321%	-9.099%	inhibition at 49.75 µM (SARS-CoV-2 nsp3-mac1 [1]; [13]): -5.32%; inhibition at 99.5 µM (SARS-CoV-2 nsp3-mac1 [1]; [13]): -9.1%
COc1cc(CC(=O)Nc2cc3c(=O)nc[nH]c3cn2)on1 [ASAP-0000366]	-4.691%	-3.481%	inhibition at 49.75 µM (SARS-CoV-2 nsp3-mac1 [1]; [14]): -4.69%; inhibition at 99.5 µM (SARS-CoV-2 nsp3-mac1 [1]; [14]): -3.48%
Cn1cc([C@@H](Nc2ncnc3[nH]ccc23)c2ccccc2)cn1 [ASAP-0000380]	19.983%	39.262%	inhibition at 49.75 µM (SARS-CoV-2 nsp3-mac1 [1]; [15]): 20%; inhibition at 99.5 µM (SARS-CoV-2 nsp3-mac1 [1]; [15]): 39.3%
Cc1nn(C)c(C)c1[C@H]1COCCN1c1ncnc2[nH]ccc12 [ASAP-0000381]	-0.137%	-0.128%	inhibition at 49.75 µM (SARS-CoV-2 nsp3-mac1 [1]; [16]): -0.137%; inhibition at 99.5 µM (SARS-CoV-2 nsp3-mac1 [1]; [16]): -0.128%
O=C(c1cncc(O)n1)N1CCC(c2ccn3ncc(C(=O)N4CCCCC4)c3c2)CC1 [ASAP-0000382]	26.617%	41.906%	inhibition at 49.75 µM (SARS-CoV-2 nsp3-mac1 [1]; [17]): 26.6%; inhibition at 99.5 µM (SARS-CoV-2 nsp3-mac1 [1]; [17]): 41.9%
